Tested on: 616215-338-R-J1-PDC tumor spheroids, viability
Test: Anticancer human tumor 616215-338-R-J1-PDC patient-derived colon adenocarcinoma cell line growth inhibition [GQUAD]
Conditions: spheroids with HUVEC and MSC; for IC50: curve of first compound; for viability, T/C: stronger effect = lower value
Summary of the method: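 Tumor cells were grown as complex spheroids with HUVEC endothelial cells and mesenchymal stem cells as stroma. G-quadruplex stabilizers were combined with targeted agents over half-log dilutions from near the clinical Cmax, or from 10 microM.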

[1] = second compound 0.0316 µM, first compound 0.0316 µM
[2] = second compound 0.0316 µM, first compound 0.1 µM
[3] = second compound 0.0316 µM, first compound 0.316 µM
[4] = second compound 0.0316 µM, first compound 1 µM
[5] = second compound 0.0316 µM, first compound 3.16 µM
[6] = second compound 0.0316 µM, first compound 10 µM
[7] = second compound 0.1 µM, first compound 0.0316 µM
[8] = second compound 0.1 µM, first compound 0.1 µM
[9] = second compound 0.1 µM, first compound 0.316 µM
[10] = second compound 0.1 µM, first compound 1 µM
[11] = second compound 0.1 µM, first compound 3.16 µM
[12] = second compound 0.1 µM, first compound 10 µM
[13] = second compound 0.316 µM, first compound 0.0316 µM
[14] = second compound 0.316 µM, first compound 0.1 µM
[15] = second compound 0.316 µM, first compound 0.316 µM
[16] = second compound 0.316 µM, first compound 1 µM
[17] = second compound 0.316 µM, first compound 3.16 µM
[18] = second compound 0.316 µM, first compound 10 µM
[19] = second compound 1 µM, first compound 0.0316 µM
[20] = second compound 1 µM, first compound 0.1 µM
[21] = second compound 1 µM, first compound 0.316 µM
[22] = second compound 1 µM, first compound 1 µM
[23] = second compound 1 µM, first compound 3.16 µM
[24] = second compound 1 µM, first compound 10 µM
[25] = second compound 3.16 µM, first compound 0.0316 µM
[26] = second compound 3.16 µM, first compound 0.1 µM
[27] = second compound 3.16 µM, first compound 0.316 µM
[28] = second compound 3.16 µM, first compound 1 µM
[29] = second compound 3.16 µM, first compound 3.16 µM
[30] = second compound 3.16 µM, first compound 10 µM
[31] = second compound 10 µM, first compound 0.0316 µM
[32] = second compound 10 µM, first compound 0.1 µM
[33] = second compound 10 µM, first compound 0.316 µM
[34] = second compound 10 µM, first compound 1 µM
[35] = second compound 10 µM, first compound 3.16 µM
[36] = second compound 10 µM, first compound 10 µM
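Further: spheroids exposed to agents for 7 days before readout.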
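Wherever viability, T/C is given: percent viability relative to DMSO vehicle control wells taken as 100%.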

With COc1ncnc(C2CC2)c1-c1ncc2cnn(Cc3ccc(-c4nc(C(F)(F)F)cn4C(C)C)cc3)c2n1 + Cc1[nH]c2ccc(F)cc2c1-c1nc2c3cccnc3c3ncccc3c2[nH]1 the IC50 (second compound 0.0316 µM) was > 10000 nM, the IC50 (second compound 0.1 µM) was > 10000 nM and the IC50 (second compound 0.316 µM) was > 10000 nM. For the same compound, the IC50 (second compound 1 µM) was > 10000 nM, the IC50 (second compound 3.16 µM) was > 10000 nM and the IC50 (second compound 10 µM) was > 10000 nM. It also gave a viability, T/C [1] of 109%, a viability, T/C [2] of 98.5% and a viability, T/C [3] of 106%. For the same compound, the viability, T/C [4] was 91.9%, the viability, T/C [5] was 106% and the viability, T/C [6] was 101%. For the same compound, the viability, T/C [7] was 108%, the viability, T/C [8] was 93.7% and the viability, T/C [9] was 96.1%. The viability, T/C [10] was 98.2%, the viability, T/C [11] was 100% and the viability, T/C [12] was 105%. The viability, T/C [13] was 106%, the viability, T/C [14] was 96.3% and the viability, T/C [15] was 96.5%. It also gave a viability, T/C [16] of 99.8%, a viability, T/C [17] of 103% and a viability, T/C [18] of 107%. The viability, T/C [19] was 100%, the viability, T/C [20] was 97.9% and the viability, T/C [21] was 96.5%. It also gave a viability, T/C [22] of 101%, a viability, T/C [23] of 108% and a viability, T/C [24] of 99.8%. The viability, T/C [25] was 101%, the viability, T/C [26] was 104% and the viability, T/C [27] was 94.7%. It also gave a viability, T/C [28] of 105%, a viability, T/C [29] of 109% and a viability, T/C [30] of 104%. It also gave a viability, T/C [31] of 97%, a viability, T/C [32] of 90.1% and a viability, T/C [33] of 98.4%. The viability, T/C [34] was 98.4%, the viability, T/C [35] was 98.7% and the viability, T/C [36] was 96.3%.

CC1COCCN1c1cc(-c2ccnn2C)c2ccnc(-c3ccn[nH]3)c2n1 (stereo not drawn) + Cc1cnc(CNC(=O)c2c(=O)c3ccc(N4CCCN(C)CC4)nc3n3c2sc2ccccc23)cn1 was tested, and the IC50 (second compound 0.0316 µM) was < 31.6 nM, the IC50 (second compound 0.1 µM) was < 31.6 nM and the IC50 (second compound 0.316 µM) was < 31.6 nM. For the same compound, the IC50 (second compound 1 µM) was < 31.6 nM, the IC50 (second compound 3.16 µM) was < 31.6 nM and the IC50 (second compound 10 µM) was < 31.6 nM. The viability, T/C [1] was 49.5%, the viability, T/C [2] was 29.5% and the viability, T/C [3] was 31.4%. It also gave a viability, T/C [4] of 24.8%, a viability, T/C [5] of 25.9% and a viability, T/C [6] of 21.4%. For the same compound, the viability, T/C [7] was 42.5%, the viability, T/C [8] was 35.8% and the viability, T/C [9] was 29.2%. It also gave a viability, T/C [10] of 25.7%, a viability, T/C [11] of 23.7% and a viability, T/C [12] of 20.7%. For the same compound, the viability, T/C [13] was 28.4%, the viability, T/C [14] was 32.1% and the viability, T/C [15] was 26%. For the same compound, the viability, T/C [16] was 28.5%, the viability, T/C [17] was 37.4% and the viability, T/C [18] was 24.8%. For the same compound, the viability, T/C [19] was 30.6%, the viability, T/C [20] was 29.8% and the viability, T/C [21] was 31.9%. For the same compound, the viability, T/C [22] was 24%, the viability, T/C [23] was 19.6% and the viability, T/C [24] was 17.9%. The viability, T/C [25] was 28.8%, the viability, T/C [26] was 22.4% and the viability, T/C [27] was 25.8%. It also gave a viability, T/C [28] of 24.4%, a viability, T/C [29] of 22.5% and a viability, T/C [30] of 17%. It also gave a viability, T/C [31] of 30.2%, a viability, T/C [32] of 22.7% and a viability, T/C [33] of 23%. For the same compound, the viability, T/C [34] was 19.7%, the viability, T/C [35] was 24.2% and the viability, T/C [36] was 19.3%.

For CC1COCCN1c1cc(C2(O)CC3CCC(C2)O3)c2cnn(-c3ccn[nH]3)c2n1 (stereo not drawn) + Cc1cnc(CNC(=O)c2c(=O)c3ccc(N4CCCN(C)CC4)nc3n3c2sc2ccccc23)cn1, the IC50 (second compound 0.0316 µM) was 107 nM, the IC50 (second compound 0.1 µM) was < 31.6 nM and the IC50 (second compound 0.316 µM) was < 31.6 nM. For the same compound, the IC50 (second compound 1 µM) was < 31.6 nM, the IC50 (second compound 3.16 µM) was < 31.6 nM and the IC50 (second compound 10 µM) was < 31.6 nM. The viability, T/C [1] was 76.3%, the viability, T/C [2] was 52.5% and the viability, T/C [3] was 29.4%. The viability, T/C [4] was 27.6%, the viability, T/C [5] was 25.2% and the viability, T/C [6] was 16.3%. The viability, T/C [7] was 38%, the viability, T/C [8] was 35.2% and the viability, T/C [9] was 33%. For the same compound, the viability, T/C [10] was 24.1%, the viability, T/C [11] was 20.8% and the viability, T/C [12] was 25.4%. For the same compound, the viability, T/C [13] was 43%, the viability, T/C [14] was 30.8% and the viability, T/C [15] was 23.8%. For the same compound, the viability, T/C [16] was 19.7%, the viability, T/C [17] was 18.9% and the viability, T/C [18] was 13.2%. For the same compound, the viability, T/C [19] was 29.5%, the viability, T/C [20] was 32.9% and the viability, T/C [21] was 22.2%. It also gave a viability, T/C [22] of 28.2%, a viability, T/C [23] of 22.3% and a viability, T/C [24] of 17.6%. It also gave a viability, T/C [25] of 42.9%, a viability, T/C [26] of 22% and a viability, T/C [27] of 18.1%. For the same compound, the viability, T/C [28] was 20.7%, the viability, T/C [29] was 15.8% and the viability, T/C [30] was 5.2%. The viability, T/C [31] was 24.5%, the viability, T/C [32] was 28.1% and the viability, T/C [33] was 29.5%. The viability, T/C [34] was 14.7%, the viability, T/C [35] was 11.2% and the viability, T/C [36] was 0.29%.

For COc1ccc([C@@H](O)c2cc(-c3ncnc4cc(N5CCOCC5)ccc34)c(F)cc2Cl)nn1 + Cc1cnc(CNC(=O)c2c(=O)c3ccc(N4CCCN(C)CC4)nc3n3c2sc2ccccc23)cn1, the IC50 (second compound 0.0316 µM) was 798 nM, the IC50 (second compound 0.1 µM) was 770 nM and the IC50 (second compound 0.316 µM) was < 31.6 nM. The IC50 (second compound 1 µM) was < 31.6 nM, the IC50 (second compound 3.16 µM) was < 31.6 nM and the IC50 (second compound 10 µM) was < 31.6 nM. For the same compound, the viability, T/C [1] was 102%, the viability, T/C [2] was 92.4% and the viability, T/C [3] was 93.9%. It also gave a viability, T/C [4] of 39.3%, a viability, T/C [5] of 30.1% and a viability, T/C [6] of 25.3%. It also gave a viability, T/C [7] of 59.2%, a viability, T/C [8] of 74.2% and a viability, T/C [9] of 61.2%. It also gave a viability, T/C [10] of 42.2%, a viability, T/C [11] of 39.9% and a viability, T/C [12] of 24.6%. It also gave a viability, T/C [13] of 43.6%, a viability, T/C [14] of 46.8% and a viability, T/C [15] of 43%. The viability, T/C [16] was 27.9%, the viability, T/C [17] was 26.4% and the viability, T/C [18] was 14.6%. For the same compound, the viability, T/C [19] was 25.3%, the viability, T/C [20] was 28.6% and the viability, T/C [21] was 30.5%. The viability, T/C [22] was 21.8%, the viability, T/C [23] was 22.8% and the viability, T/C [24] was 7.7%. For the same compound, the viability, T/C [25] was 23.1%, the viability, T/C [26] was 26.9% and the viability, T/C [27] was 30.1%. For the same compound, the viability, T/C [28] was 25%, the viability, T/C [29] was 15.9% and the viability, T/C [30] was 3.64%. It also gave a viability, T/C [31] of 33.8%, a viability, T/C [32] of 25.8% and a viability, T/C [33] of 32.3%. It also gave a viability, T/C [34] of 20%, a viability, T/C [35] of 15.4% and a viability, T/C [36] of 3.43%.
